According to US10683297B2 (Sunshine Lake Pharma Co., Ltd., priority 2017, dated 2020):

Key:
JAK3 (h) = target: T1, JAK3 (h) (Homo sapiens, UniProt P52333); assay: JAK3 (h) kinase assay; format: biochemical; settings: [γ-33P-ATP] 10 μM or KM values; 40 minutes at room temperature
T1 construct: purchased Millipore UK Ltd (assays performed there as a service)
T1 sequence (P52333 1-1124): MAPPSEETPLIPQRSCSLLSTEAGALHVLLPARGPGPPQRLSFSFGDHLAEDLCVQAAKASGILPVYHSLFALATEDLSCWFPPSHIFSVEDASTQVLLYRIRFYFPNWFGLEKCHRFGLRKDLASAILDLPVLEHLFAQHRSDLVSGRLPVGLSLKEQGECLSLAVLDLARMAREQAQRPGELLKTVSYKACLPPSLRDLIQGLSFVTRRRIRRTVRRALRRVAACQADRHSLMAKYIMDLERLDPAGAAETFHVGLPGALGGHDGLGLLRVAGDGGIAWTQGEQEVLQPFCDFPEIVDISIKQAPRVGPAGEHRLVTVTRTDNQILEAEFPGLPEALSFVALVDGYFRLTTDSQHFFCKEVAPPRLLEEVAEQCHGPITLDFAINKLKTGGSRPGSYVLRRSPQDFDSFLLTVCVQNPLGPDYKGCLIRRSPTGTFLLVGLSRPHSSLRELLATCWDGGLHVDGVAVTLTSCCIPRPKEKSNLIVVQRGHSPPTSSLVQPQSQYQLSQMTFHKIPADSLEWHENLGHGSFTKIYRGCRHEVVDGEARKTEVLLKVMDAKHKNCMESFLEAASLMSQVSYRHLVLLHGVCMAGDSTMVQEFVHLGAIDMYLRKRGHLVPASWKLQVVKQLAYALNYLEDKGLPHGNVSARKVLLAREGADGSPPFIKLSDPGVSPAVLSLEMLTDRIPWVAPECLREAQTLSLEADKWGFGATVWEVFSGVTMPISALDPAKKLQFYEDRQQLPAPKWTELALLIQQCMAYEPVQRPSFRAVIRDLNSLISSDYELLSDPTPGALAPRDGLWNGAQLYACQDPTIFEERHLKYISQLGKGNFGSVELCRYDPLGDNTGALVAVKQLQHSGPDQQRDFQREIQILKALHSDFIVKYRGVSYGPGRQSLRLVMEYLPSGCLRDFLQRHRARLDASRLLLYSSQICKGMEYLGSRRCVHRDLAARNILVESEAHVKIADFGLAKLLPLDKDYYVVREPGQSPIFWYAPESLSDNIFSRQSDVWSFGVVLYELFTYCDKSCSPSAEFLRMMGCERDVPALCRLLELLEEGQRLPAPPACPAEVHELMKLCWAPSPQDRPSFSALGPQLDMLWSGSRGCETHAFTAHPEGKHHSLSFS
Experimental: (§1) Kinase assays can be performed by measurement of incorporation of γ-^33P ATP into immobilized myelin basic protein (MBP). High binding white 384 well plates (Greiner) are coated with MBP (Sigma # M-1891) by incubation of 60 μL well of 20 μg/mL MBP in Tris-buffered saline (TBS; 50 mM Tris pH 8.0, 138 mM NaCl, 2.7 mM KCl) for 24 h at 4° C. Plates are washed 3× with 100 μL TBS. Kinase reactions are carried out in a total volume of 34 μL in kinase buffer (according to the need to make, for example, 5 mM Hepes pH 7.6, 15 mM NaCl, 0.01% bovine gamma globulin (Sigma #1-5506), 10 mM MgCl2, 1 mM DTT, 0.02% TritonX-100). Compound dilutions are performed in DMSO and added to assay wells to a final DMSO concentration of 1%. Each data point is measured in duplicate, and at least two duplicate assays are performed for each individual compound determination. Enzyme is added to final concentrations of 10 nM or 20 nM, for example. A mixture of unlabeled ATP and γ-^33P ATP is added to start the reaction (2×10^6 cpm of γ-^33P ATP per well (3000 Ci/mmole) and 10 μM unlabeled ATP, typically. The reactions are carried out for 1 hour at room temperature with shaking. Plates are washed 7× with TBS, followed by the addition of 50 μL well scintillation fluid (Wallac). Plates are read using a Wallac Trilux counter. This is only one format of such assays; various other formats are possible, as known to one skilled in the art.
(§2) The above assay procedure can be used to determine the IC50 for inhibition and/or the inhibition constant, Ki. […] The IC50 value is estimated by preparing a 10 point curve using a ½ log dilution series (for example, a typical curve may be prepared using the following compound concentrations: 3 μM, 1 μM, 0.3 μM, 0.1 μM, 0.03 μM, 0.01 μM, 0.003 μM, 0.001 μM, 0.0003 μM and 0 μM).
(§3) (specific activity approx. 500 cpm/pmol, 10 μM or KM values). The reaction is initiated by the addition of the MgATP mix. After incubation for 40 minutes at room temperature, the reaction is stopped by the addition of 3% phosphoric acid solution. 10 μL of the reaction is then spotted onto a P30 filtermat and washed three times for 5 minutes in 75 mM phosphoric acid and once in methanol prior to drying and scintillation counting.
(§4) The kinase assays described herein were performed at Millipore UK Ltd, Dundee Technology Park, Dundee DD2 1SW, UK.

FLT4 (h) = target: T2, FLT4 (h) (Homo sapiens, UniProt P35916); assay: FLT4 (h) kinase assay; format: biochemical; settings: [γ-33P-ATP] 10 μM or KM values; cells tagged (Flt4); read-out: IC50 (Flt4), printed in the FLT3 (h) column
T2 construct: purchased Millipore UK Ltd (assays performed there as a service)
T2 sequence (P35916 25-1363): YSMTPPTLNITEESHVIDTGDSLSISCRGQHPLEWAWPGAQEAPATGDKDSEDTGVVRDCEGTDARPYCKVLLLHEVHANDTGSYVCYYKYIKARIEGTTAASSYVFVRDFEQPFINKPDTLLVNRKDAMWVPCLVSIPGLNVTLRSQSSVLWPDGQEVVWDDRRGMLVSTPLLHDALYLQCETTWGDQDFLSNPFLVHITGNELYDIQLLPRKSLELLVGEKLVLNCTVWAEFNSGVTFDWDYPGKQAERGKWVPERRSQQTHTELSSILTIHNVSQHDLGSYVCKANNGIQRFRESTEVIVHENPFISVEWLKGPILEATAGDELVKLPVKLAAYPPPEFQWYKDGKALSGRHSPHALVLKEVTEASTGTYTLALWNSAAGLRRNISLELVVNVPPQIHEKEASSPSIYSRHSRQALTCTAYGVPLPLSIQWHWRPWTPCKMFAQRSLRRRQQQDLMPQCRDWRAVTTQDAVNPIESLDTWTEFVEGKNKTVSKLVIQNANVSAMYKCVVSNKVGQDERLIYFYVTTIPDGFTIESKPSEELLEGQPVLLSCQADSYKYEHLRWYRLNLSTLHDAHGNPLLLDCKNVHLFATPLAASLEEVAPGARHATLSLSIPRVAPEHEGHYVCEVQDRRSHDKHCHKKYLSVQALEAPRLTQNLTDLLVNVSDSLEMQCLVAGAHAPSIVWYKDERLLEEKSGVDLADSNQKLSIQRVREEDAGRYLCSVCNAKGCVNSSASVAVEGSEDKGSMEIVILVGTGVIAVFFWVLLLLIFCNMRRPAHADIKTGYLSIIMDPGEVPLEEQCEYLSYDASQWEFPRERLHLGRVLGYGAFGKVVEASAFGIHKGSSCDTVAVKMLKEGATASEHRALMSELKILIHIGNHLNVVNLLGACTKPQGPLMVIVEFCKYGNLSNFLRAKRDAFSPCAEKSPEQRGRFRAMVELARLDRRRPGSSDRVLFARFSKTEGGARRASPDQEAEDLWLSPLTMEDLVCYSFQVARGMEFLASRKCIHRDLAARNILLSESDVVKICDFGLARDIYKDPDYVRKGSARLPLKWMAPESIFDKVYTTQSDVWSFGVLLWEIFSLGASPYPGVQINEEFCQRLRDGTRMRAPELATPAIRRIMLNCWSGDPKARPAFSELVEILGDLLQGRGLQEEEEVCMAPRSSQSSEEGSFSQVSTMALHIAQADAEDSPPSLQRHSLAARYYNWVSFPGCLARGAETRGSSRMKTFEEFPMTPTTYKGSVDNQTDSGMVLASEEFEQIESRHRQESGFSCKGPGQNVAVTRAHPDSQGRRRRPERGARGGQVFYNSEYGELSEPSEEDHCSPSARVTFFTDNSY
Experimental: as §1, §2
as §3, with “FLT4 (h) is incubated with 8 mM MOPS pH 7.0, 0.2 mM EDTA, 50 μM […], 10 mM MgAcetate and [γ-^33P-ATP] (specific” for “(specific”
as §4

Row | Compound | IC50 (JAK3 (h)) [nM] | IC50 (FLT4 (h)) [nM]
1 | CC(C)(O)c1nc2cc(Nc3ncc(Cl)c(NC4CCN(c5ccc(C#N)nn5)CC4)n3)ccn2n1 [Example 55, 6-(4-((5-chloro-2-((2-(2-hydroxypropan-2-yl)-[1,2,4]triazolo[1,5-a]pyridin-7-yl)amino)pyrimidin-4-yl)amino)piperidin-1-yl)pyridazine-3-carbonitrile] | 291 | 95
2 | CC(C)(O)Cc1nc2ccc(Nc3ncc(Cl)c(NC4CCN(c5ccc(C#N)cn5)CC4)n3)cn2n1 [Example 67, 6-(4-((5-chloro-2-((2-(2-hydroxy-2-methylpropyl)-[1,2,4]triazolo[1,5-a]pyridin-6-yl)amino)pyrimidin-4-yl)amino)piperidin-1-yl)nicotinonitrile] | – | 113
3 | CC(C)(O)Cc1nnc2cc(Nc3ncc(Cl)c(NC4CCN(c5ccc(C#N)nn5)CC4)n3)ccn12 [Example 75, 6-(4-((5-chloro-2-((3-(2-hydroxy-2-methylpropyl)-[1,2,4]triazolo[4,3-a]pyridin-7-yl)amino)pyrimidin-4-yl)amino)piperidin-1-yl)pyridazine-3-carbonitrile] | 202 | 202
4 | CC(C)(O)Cc1nc2cc(Nc3ncc(Cl)c(NC4CCN(c5ccc(C#N)nn5)CC4)n3)ccn2n1 [Example 77, 6-(4-((5-chloro-2-((2-(2-hydroxy-2-methylpropyl)-[1,2,4]triazolo[1,5-a]pyridin-7-yl)amino)pyrimidin-4-yl)amino)piperidin-1-yl)pyridazine-3-carbonitrile] | 353 | 166
5 | CC(C)(O)Cc1nc2cc(Nc3ncc(Cl)c(NC4CCN(c5ccc(C#N)cn5)CC4)n3)ccn2n1 [Example 78, 6-(4-((5-chloro-2-((2-(2-hydroxy-2-methylpropyl)-[1,2,4]triazolo[1,5-a]pyridin-7-yl)amino)pyrimidin-4-yl)amino)piperidin-1-yl)nicotinonitrile] | 344 | 117

Further compounds by falling IC50 (JAK3 (h)), results first:

Row | IC50 (JAK3 (h)) [nM] | IC50 (FLT4 (h)) [nM] | Compound
6 | 127 | – | N#Cc1ccc(N2CCC(Nc3nc(Nc4ccn5c(C(F)F)nnc5c4)ncc3Cl)CC2)nc1 [Example 30, 6-(4-((5-chloro-2-((3-(difluoromethyl)-[1,2,4]triazolo[4,3-a]pyridin-7-yl)amino)pyrimidin-4-yl)amino)piperidin-1-yl)nicotinonitrile]
7 | 112 | 87 | CC(C)(O)Cc1cn2cc(Nc3ncc(Cl)c(NC4CCN(c5ccc(C#N)cn5)CC4)n3)ccc2n1 [Example 73, 6-(4-((5-chloro-2-((2-(2-hydroxy-2-methylpropyl)imidazo[1,2-a]pyridin-6-yl)amino)pyrimidin-4-yl)amino)piperidin-1-yl)nicotinonitrile]
8 | 64 | 57 | CC(C)(O)Cc1nnc2cc(Nc3ncc(Cl)c(NC4CCN(c5ccc(C#N)cn5)CC4)n3)ccn12 [Example 74, 6-(4-((5-chloro-2-((3-(2-hydroxy-2-methylpropyl)-[1,2,4]triazolo[4,3-a]pyridin-7-yl)amino)pyrimidin-4-yl)amino)piperidin-1-yl)nicotinonitrile]
9 | 60 | – | Cc1nc2cc(Nc3ncc(Cl)c(NC4CCN(c5ccc(C#N)cn5)CC4)n3)ccn2n1 [Example 32, 6-(4-((5-chloro-2-((2-methyl-[1,2,4]triazolo[1,5-a]pyridin-7-yl)amino)pyrimidin-4-yl)amino)piperidin-1-yl)nicotinonitrile]
10 | 5 | 20 | CC(O)Cn1cnc2cc(Nc3ncc(Cl)c(NC4CCN(c5ccc(C#N)cn5)CC4)n3)ccc21 (stereo not shown) [Example 61, 6-(4-((5-chloro-2-((1-(2-hydroxypropyl)-1H-benzo[d]imidazol-5-yl)amino)pyrimidin-4-yl)amino)piperidin-1-yl)nicotinonitrile]
11 | 5 | 15 | CC(C)(O)Cn1nnc2cc(Nc3ncc(Cl)c(NC4CCN(c5ccc(C#N)cn5)CC4)n3)ccc21 [Example 69, 6-(4-((5-chloro-2-((1-(2-hydroxy-2-methylpropyl)-1H-benzo[d][1,2,3]triazol-5-yl)amino)pyrimidin-4-yl)amino)piperidin-1-yl)nicotinonitrile]
